Experiment [1] can be described thus: Inhibition of HIV1 gp41. The arrangement: species or system Human immunodeficiency virus 1.
A short description of experiment [2]: Antiproliferative activity against breast cancer cells (unknown origin). Format: functional, cell-based. Conditions: Cancer cell lines.
Another experiment has as its target Neuropilin-1 (Homo sapiens, UniProt O14786). Kind of experiment: Binding affinity to NRP1 (unknown origin) assessed as reduction in […]VEGFA (165) protein interaction.
A further experiment concerns MCF7. Kind of experiment: Cytotoxicity against human MCF7 cells. It counts as functional, cell-based.
The next experiment has as its target Annexin A2/S100-A10 (Homo sapiens, UniProt P07355+P60903). The experiment can be described thus: Inhibition of Annexin A2/Protein S100-A10 (unknown origin) protein interaction by competitive fluorescent binding assay.
The nature of experiment [3]: Binding affinity to IFNalpha (unknown origin) assessed as reduction in IFNalpha/IFNAR2 interaction. The arrangement: species or system Homo sapiens.
Experiment [4] has as its target Tumour suppressor p53/oncoprotein Mdm2 (Homo sapiens, UniProt P04637+Q00987). The experiment can be described thus: Inhibition of MDM2/p53 (unknown origin) interaction by fluorescence polarization assay. Format: protein assay. For orientation: Polarisation of emitted light reports the rotation of a fluorescent probe.
In experiment [5] the target is T1, Urokinase plasminogen activator surface receptor (Homo sapiens, UniProt Q03405). Kind of experiment: Binding affinity to uPAR (unknown origin) assessed as reduction in uPA-uPAR protein interaction.
T1 sequence (Q03405 whole entry): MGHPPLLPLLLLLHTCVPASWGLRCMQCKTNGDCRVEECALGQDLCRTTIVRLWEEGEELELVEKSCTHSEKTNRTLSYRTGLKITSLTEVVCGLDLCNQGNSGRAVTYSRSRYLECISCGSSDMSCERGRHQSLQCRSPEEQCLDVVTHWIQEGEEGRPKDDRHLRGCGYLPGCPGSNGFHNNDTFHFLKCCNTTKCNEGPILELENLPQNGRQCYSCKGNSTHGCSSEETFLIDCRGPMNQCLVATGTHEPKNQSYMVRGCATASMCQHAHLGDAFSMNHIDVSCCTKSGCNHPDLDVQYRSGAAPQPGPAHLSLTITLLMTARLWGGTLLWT
The target of experiment [6] is T1, Urokinase plasminogen activator surface receptor. Kind of experiment: Binding affinity to uPAR (unknown origin).
Another experiment addresses Keap1/Nrf2 (Homo sapiens, UniProt Q14145+Q16236). Kind of experiment: Inhibition of Nrf2/Keap1 (unknown origin) protein interaction by fluorescence anisotropy method. Format: protein assay.
In another experiment the target is T2, Alpha-crystallin B chain (Homo sapiens, UniProt P02511).
T2 sequence (P02511 whole entry): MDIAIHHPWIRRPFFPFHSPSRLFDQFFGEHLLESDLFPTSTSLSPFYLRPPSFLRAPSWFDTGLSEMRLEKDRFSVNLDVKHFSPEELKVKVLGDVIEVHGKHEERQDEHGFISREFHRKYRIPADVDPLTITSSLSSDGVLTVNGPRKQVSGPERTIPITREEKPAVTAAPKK
The experiment can be described thus: Binding affinity to CRYAB (unknown origin) assessed as reduction in CRYAB-VEGFA protein interaction.

The target of experiment [7] is Tumour suppressor protein p53/Mdm4 (Homo sapiens, UniProt O15151+P04637). The experiment can be described thus: Inhibition of MDMX/p53 (unknown origin) interaction. Format: protein assay.
Tumour suppressor protein p53/Mdm4, sequence (P04637 whole entry): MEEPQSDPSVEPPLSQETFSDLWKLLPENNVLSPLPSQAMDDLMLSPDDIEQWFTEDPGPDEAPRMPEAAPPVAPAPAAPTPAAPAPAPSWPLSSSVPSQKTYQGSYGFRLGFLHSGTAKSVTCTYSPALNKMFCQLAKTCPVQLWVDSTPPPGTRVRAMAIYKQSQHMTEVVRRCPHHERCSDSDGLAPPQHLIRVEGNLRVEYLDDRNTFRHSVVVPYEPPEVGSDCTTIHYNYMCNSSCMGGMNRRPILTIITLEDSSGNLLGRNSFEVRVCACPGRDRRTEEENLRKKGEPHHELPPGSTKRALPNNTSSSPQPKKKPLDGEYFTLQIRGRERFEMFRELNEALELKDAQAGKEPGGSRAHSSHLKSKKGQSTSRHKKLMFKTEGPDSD
Tumour suppressor protein p53/Mdm4, sequence (O15151 whole entry): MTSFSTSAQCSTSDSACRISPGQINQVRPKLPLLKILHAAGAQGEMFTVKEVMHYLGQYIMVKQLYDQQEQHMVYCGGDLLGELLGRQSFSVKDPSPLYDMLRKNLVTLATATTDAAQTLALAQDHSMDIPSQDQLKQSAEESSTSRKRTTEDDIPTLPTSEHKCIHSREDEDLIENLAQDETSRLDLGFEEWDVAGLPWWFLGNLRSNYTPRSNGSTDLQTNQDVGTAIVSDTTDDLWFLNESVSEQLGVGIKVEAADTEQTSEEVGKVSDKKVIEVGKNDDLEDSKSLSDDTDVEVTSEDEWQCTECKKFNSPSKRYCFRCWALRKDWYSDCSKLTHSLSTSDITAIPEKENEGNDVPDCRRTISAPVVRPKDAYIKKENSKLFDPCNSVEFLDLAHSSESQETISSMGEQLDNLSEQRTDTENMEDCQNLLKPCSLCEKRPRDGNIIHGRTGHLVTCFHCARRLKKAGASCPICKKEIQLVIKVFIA

The values below come from ChEMBL document CHEMBL3621082, “Rational design of proteinprotein interaction inhibitors” (Medchemcomm, 2015).

Annexin A2/S100-A10, sequence (P07355 whole entry): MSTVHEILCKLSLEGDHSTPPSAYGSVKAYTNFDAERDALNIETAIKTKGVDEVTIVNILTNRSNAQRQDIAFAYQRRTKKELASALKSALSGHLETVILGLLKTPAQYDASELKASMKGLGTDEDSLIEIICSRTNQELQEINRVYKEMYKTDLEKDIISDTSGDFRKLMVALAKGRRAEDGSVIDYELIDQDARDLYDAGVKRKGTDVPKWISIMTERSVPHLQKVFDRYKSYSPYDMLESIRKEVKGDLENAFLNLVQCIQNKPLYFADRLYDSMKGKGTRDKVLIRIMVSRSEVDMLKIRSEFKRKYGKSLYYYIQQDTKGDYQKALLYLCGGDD
Annexin A2/S100-A10, sequence (P60903 whole entry): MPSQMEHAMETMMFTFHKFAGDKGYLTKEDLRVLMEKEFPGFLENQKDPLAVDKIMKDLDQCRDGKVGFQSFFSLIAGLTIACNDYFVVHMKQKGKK
Neuropilin-1, sequence (O14786 whole entry): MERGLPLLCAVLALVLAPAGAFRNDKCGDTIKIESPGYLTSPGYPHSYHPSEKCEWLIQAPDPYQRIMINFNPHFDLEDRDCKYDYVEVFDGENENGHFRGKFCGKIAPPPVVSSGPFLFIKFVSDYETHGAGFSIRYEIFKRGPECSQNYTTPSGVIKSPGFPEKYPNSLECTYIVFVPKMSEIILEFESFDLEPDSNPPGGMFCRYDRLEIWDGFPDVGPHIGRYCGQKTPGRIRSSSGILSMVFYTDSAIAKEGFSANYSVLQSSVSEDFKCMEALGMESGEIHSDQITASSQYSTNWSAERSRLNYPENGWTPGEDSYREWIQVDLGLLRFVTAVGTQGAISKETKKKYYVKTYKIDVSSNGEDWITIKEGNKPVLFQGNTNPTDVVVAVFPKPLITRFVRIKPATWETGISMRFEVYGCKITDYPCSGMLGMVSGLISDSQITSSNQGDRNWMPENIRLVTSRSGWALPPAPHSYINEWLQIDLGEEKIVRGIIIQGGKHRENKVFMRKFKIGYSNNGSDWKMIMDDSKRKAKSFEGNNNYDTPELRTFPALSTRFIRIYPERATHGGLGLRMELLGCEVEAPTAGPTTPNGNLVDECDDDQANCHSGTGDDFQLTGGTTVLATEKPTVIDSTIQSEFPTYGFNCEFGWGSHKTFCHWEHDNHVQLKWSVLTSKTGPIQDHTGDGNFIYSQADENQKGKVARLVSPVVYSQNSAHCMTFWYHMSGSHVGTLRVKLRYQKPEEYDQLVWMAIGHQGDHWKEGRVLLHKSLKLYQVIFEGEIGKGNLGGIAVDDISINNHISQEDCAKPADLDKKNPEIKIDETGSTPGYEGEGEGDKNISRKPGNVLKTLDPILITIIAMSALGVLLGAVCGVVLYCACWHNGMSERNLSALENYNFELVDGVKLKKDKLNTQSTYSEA
Keap1/Nrf2, sequence (Q16236 whole entry): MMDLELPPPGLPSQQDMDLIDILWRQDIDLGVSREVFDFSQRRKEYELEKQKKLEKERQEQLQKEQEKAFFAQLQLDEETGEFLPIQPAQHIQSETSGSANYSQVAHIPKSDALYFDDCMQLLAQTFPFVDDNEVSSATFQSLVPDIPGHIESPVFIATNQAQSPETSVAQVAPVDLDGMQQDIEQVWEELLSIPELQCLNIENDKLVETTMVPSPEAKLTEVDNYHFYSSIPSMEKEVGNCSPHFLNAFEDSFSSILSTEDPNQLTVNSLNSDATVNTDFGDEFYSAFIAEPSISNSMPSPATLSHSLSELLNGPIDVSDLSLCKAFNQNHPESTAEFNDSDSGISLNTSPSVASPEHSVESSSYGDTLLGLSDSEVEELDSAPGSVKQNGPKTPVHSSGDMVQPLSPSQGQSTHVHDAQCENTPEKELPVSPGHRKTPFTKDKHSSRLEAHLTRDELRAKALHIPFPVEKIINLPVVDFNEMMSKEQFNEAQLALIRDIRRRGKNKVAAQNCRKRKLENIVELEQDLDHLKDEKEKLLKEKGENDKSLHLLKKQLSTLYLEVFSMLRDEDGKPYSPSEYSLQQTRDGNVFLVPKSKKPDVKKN
Keap1/Nrf2, sequence (Q14145 whole entry): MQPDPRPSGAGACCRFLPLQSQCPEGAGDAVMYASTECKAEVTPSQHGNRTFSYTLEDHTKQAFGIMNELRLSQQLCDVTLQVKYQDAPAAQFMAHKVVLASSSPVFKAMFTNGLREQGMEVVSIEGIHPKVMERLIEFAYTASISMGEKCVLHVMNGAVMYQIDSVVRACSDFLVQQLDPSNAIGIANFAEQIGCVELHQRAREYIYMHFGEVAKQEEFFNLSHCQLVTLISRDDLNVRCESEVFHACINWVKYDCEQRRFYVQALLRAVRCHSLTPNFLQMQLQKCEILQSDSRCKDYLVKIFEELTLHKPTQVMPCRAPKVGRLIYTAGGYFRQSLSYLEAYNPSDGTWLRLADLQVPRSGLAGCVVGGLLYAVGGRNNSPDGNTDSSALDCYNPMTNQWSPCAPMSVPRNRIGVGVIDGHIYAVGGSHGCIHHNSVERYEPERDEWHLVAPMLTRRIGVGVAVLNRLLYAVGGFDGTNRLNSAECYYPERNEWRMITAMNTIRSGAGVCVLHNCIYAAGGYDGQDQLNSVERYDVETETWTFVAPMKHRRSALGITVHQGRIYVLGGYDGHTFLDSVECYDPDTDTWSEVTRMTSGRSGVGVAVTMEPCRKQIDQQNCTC
Tumour suppressor p53/oncoprotein Mdm2, sequence (P04637 whole entry): as the sequence (P04637 whole entry) above
Tumour suppressor p53/oncoprotein Mdm2, sequence (Q00987 whole entry): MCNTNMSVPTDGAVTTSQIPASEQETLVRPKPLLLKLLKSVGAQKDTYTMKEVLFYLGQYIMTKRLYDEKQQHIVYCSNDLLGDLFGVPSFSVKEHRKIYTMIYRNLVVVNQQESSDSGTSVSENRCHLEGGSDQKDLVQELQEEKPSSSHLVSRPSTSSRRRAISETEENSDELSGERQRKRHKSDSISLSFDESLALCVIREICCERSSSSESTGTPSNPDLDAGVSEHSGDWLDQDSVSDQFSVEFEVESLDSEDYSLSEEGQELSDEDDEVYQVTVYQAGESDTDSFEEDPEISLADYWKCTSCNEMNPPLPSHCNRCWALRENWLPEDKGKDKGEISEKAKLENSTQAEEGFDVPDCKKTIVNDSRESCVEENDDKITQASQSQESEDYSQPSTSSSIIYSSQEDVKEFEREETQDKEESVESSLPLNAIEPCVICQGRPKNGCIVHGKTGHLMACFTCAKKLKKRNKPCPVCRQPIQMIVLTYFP

For `CC(C)C[C@H](NC(=O)c1ccc(NC(=O)[C@@H](N)Cc2c[nH]c3ccccc23)c(OCCc2c[nH]c3ccccc23)c1)C(=O)O`, in [1], the Ki (in general, the equilibrium dissociation constant of an inhibitor or competing ligand from its target) was found to be 1.5 µM.
Consider `O=C(NC(=S)Nc1cccc(-c2nc3ccccc3[nH]2)c1)c1ccc2c(c1)OCCO2`, for which the IC50 (in general, the midpoint of a concentration-inhibition curve) in experiment [2] amounted to 0.2 µM; on Neuropilin-1 it was 9.3 µM.
Turning to `COC(=O)[C@@H](CCCCNC(=O)OC(C)(C)C)NC(=O)CI`, in the experiment on MCF7, the EC50 – broadly, the midpoint of the concentration-response curve – was 0.64 µM.
Take `Cc1ccccc1OCc1nnc(SCC(N)=O)[nH]1`: at Annexin A2/S100-A10, the IC50 was determined as 24 µM.
Regarding `CNCc1ccccc1Cc1cccc2ccccc12`, the IC50 in [3] was found to be 4 µM.
As for `O=C(O)c1ccccc1/N=N/C(=N\Nc1cc(S(=O)(=O)O)ccc1O)c1ccccc1`, the affinity in experiment [4] corresponds to a Ki of 0.18 µM.
For `C[C@H]1C[C@H](C)CN(c2cc(Nc3ccccc3C(=O)O)c3c4c(onc24)-c2ccccc2C3=O)C1`, the IC50 in experiment [5] worked out at 10 µM. For the same compound, in experiment [6], the Kd – broadly, the constant that tells how readily two partners part at equilibrium – came out at 0.31 µM.
For `CCC(CC)c1ccc(S(=O)(=O)Nc2cc(Sc3nc[nH]n3)c(O)c3ccccc23)cc1`, on Keap1/Nrf2, the affinity, expressed as Kd, was 2.9 µM.
For `CC(CC(=O)O)C(N)C(=O)O` (configuration not stated), the IC50 on Alpha-crystallin B chain is 20 µM.
In the case of `C[C@H](CCC(=O)O)[C@H]1CC[C@H]2[C@@H]3CC[C@@H]4C[C@H](O)CC[C@]4(C)[C@H]3CC[C@]12C` [LITHOCHOLIC ACID], in experiment [7], the affinity, expressed as Kd, was 15 µM.
